In US5981521A, “Tetrahydroisoquinoline derivatives as LHRH antagonists” (Abbott Laboratories, priority 1998, dated 1999):
Structures can show the parent of a compound that is named as a salt.

Biological target: T1, LHRH rat pituitary receptor (Rattus norvegicus, UniProt P30969)
T1 construct: from tissue; host or cells: rat pituitary
T1 sequence (P30969 1-327): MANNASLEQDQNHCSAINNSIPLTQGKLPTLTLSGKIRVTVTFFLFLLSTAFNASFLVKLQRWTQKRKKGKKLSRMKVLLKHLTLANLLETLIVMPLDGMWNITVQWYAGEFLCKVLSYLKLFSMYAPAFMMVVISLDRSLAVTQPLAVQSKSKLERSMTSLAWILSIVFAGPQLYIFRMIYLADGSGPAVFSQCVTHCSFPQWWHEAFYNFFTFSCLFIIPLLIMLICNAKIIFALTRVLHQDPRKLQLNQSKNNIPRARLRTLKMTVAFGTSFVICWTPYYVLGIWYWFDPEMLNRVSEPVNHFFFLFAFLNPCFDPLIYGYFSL
Assay: LHRH rat pituitary receptor binding
Description: Representative compounds of the present invention were evaluated in vitro for potency against for LHRH rat pituitary receptor binding [pK, ]. Methods for the assay procedures are 10 described in […] al. J Med. Chem., 32: 2340-2344 (1989). Values of pK, are the negative logarithms of the equilibrium dissociation constant of the particular antagonist test compound for the receptor binding. […] Leuprolide LHRH agonist, disclosed and claimed in U.S. Pat. No. 4,005, 063, has the structure 5-oxo-[…].

[1] = Table 1: compounds of formula (V), by n and R1
[2] = Table 2: compounds of formula (VI), by isoquinolinyl moiety R

| Compound | pKI [1] | further results |
| --- | --- | --- |
| COc1cc2c(cc1OC)C(CCCCNCC(C)C)N(CCCC(CCCNC(=O)CCc1ccc(F)cc1)(c1ccccc1)c1ccccc1)CC2 (centres unmarked) [Example 29, 7-[N-3-(4-Fluorophenyl)propionyl]-1-[N-(1,2,3,4-tetrahydro-1-[4-(N-isobutylamino)butyll-6,7-dimethoxyisoguinolinyl)1-4.4-diphenylheptanedihydrochloride] | 8.60 | – |
| COc1cc2c(cc1OC)C(CNC(C)C)N(CCCC(CCCNC(=O)CCc1ccc(F)cc1)(c1ccccc1)c1ccccc1)CC2 (centres unmarked) [Example 23, 7-[N-3-(4-Fluorophenyl)propionyll-1-[N-(1,2,3,4-tetrahydro-1-(N-isopropylaminomethyl)-6,7-dimethoxyisoguinolinyl)]-4,4-diphenylheptanedihydrochloride] | 8.91 | – |
| COC(=O)c1cc2c(cc1OC)C(C)N(CCCC(CCCNC(=O)CCc1ccc(F)cc1)(c1ccccc1)c1ccccc1)CC2 (centres unmarked) [Example 63, 7-[N-3-(4-Fluorophenyl)propionyl]-1-[N-(1,2,3,4-tetrahydro-1-methyl-6-carbomethoxy-7-methoxyisoguinolinyl)1-4.4-diphenylhentane hydrochloride] | – | Ki [2]: 6.76 nM |
| COc1cc2c(cc1OC)C(C1CC1)N(CCCC(CCCNC(=O)CCc1ccc(F)cc1)(c1ccccc1)c1ccccc1)CC2 (centres unmarked) [Example 4, 7-[N-3-(4-Fluorolphenyl)Propionyl]1-[N-(1,2,3,4-tetrahydro-1-cyclopropyl-6.7-dimethoxyisoquinolinyl)]-4,4-diphenylheptane hydrochloride] | – | Ki [1]: 0.135 nM |
| COc1cc2c(cc1OC)C(CC#N)N(CCCC(CCCNC(=O)CCc1ccc(F)cc1)(c1ccccc1)c1ccccc1)CC2 (centres unmarked) [Example 11, 7-[N-3-(4-Fluorophenyl)propionyl]amino-1-[N-(1,2,3,4-tetrahydro-1-cyanomethyl-6,7-dimethoxyisoguinolinyl)1-4.4-diphenylheptane hydrochloride] | 8.71 | – |
| COc1cc2c(cc1OC)C(C)N(CCCC(CCCNC(=O)CCc1ccc(F)cc1)(c1ccccc1)c1ccccc1)CC2 (racemic) [Example 1, (R,S) 7-[N-3-(4-Fluorophenyl)propionyl]amino-1-[N-(1,2,3,4-tetrahydro-1-methyl-6,7-dimethoxyisoquinolinyl]1-4,4-diphenylheptane hydrochloride] | 8.80 | – |
| CC1c2cc(Cl)ccc2CCN1CCCC(CCCNC(=O)CCc1ccc(F)cc1)(c1ccccc1)c1ccccc1 (centres unmarked) [Example 52, 7-[N-3-(4-Fluorophenyl)propionyl]-1-[N-(1,2,3,4-tetrahydro-1-methyl-7-chloro-isoguinolinyl)-4,4-dithenylhepMtane hydrochloride] | – | Ki [2]: 3.55 nM |
| COc1cc2c(cc1OC)C(C1CCC1)N(CCCC(CCCNC(=O)CCc1ccc(F)cc1)(c1ccccc1)c1ccccc1)CC2 (centres unmarked) [Example 9, 7-[N-3-(4-Fluorophenyl)propionyl]amino-1-[N-(1,2,3,4-tetrahydro-1-cyclobutyl-6,7-dimethoxnisoguinolinyl)]1-4,4-diphenalhentane hydrochloride] | 10.07 | – |
| COc1cc2c(cc1OC)C(CCCCNCC1CC1)N(CCCC(CCCNC(=O)CCc1ccc(F)cc1)(c1ccccc1)c1ccccc1)CC2 (centres unmarked) [Example 27] | 10.0 | – |
| COc1cc2c(cc1OC)C(C)N(CCCC(CCCNC(=O)CCc1ccc(Cl)cc1)(c1ccccc1)c1ccccc1)CC2 (centres unmarked) [Example 79, 7-[N-3-(4-chlorophenol)propionyl]amino-1-[N-(I .2.3,4-tetrahydro-1-methyl-6,7-dimethoxyisoguinolinyl)1-4,4-diphenylheptane hydrochloride] | – | Ki (Table 3: compounds of formula (VII), by substituent R'): 0.195 nM |
| COc1cc2c(cc1OC)C(CCCCNC(=O)c1cccnc1)N(CCCC(CCCNC(=O)CCc1ccc(F)cc1)(c1ccccc1)c1ccccc1)CC2 (centres unmarked) [Example 35, 7-[N-3-(4-Fluorophenyl)propionyl]amino-1-[N-(1,2,3,4-tetrahydro-1-(4-N-nicotinylamino)-butyl-6,7-dimethoxyisoguinolinyll-4,4-diphenylheptane hydrochloride] | – | Ki [1]: 2.45 nM |
